This note sets out measurements from ChEMBL document CHEMBL4819080, “Cannabidiol-dihydroartemisinin conjugates for ameliorating neuroinflammation with reduced cytotoxicity” (Bioorg Med Chem, 2021).

For data set [1], the system named is BV-2. The data set can be described thus: Inhibition of LPS-induced MAPK activation in mouse BV-2 cells assessed as reduction in p38 phosphorylation at 100 uM incubated for 1 hr by Western blot analysis. It is filed as cell-based.
The subject of data set [2] is BV-2. The data set can be described thus: Antiinflammatory activity in mouse BV-2 cells assessed as reduction in LPS-induced nitric oxide production incubated for 24 hrs by 2, 3-diaminonaphthalene based assay. It is filed as functional, cell-based.
The test system of data set [3] is BV-2. The data set can be described thus: Inhibition of LPS-induced NF-kappaB activation in mouse BV-2 cells assessed as reduction in IKKalpha/beta phosphorylation at 100 uM incubated for 1 hr by Western blot analysis. It counts as cell-based. (Immunoblotting shows a protein as a band on a membrane.)
The test system of data set [4] is BV-2. The data set can be described thus: Antiinflammatory activity in mouse BV-2 cells assessed as reduction in LPS-induced iNOS mRNA expression incubated for 6 hrs by qRT-PCR analysis. It counts as functional, cell-based. As to conditions: dose 20-100 µM.
Data set [5] concerns BV-2. The data set can be described thus: Inhibition of LPS-induced MAPK activation in mouse BV-2 cells assessed as reduction in JNK phosphorylation at 100 uM incubated for 1 hr by Western blot analysis. It is filed as cell-based.
Data set [6] deals with BV-2. Description: Inhibition of LPS-induced MAPK activation in mouse BV-2 cells assessed as reduction in ERK phosphorylation at 100 uM incubated for 1 hr by Western blot analysis. It counts as cell-based.
Data set [7] has as its system BV-2. Description: Inhibition of LPS-induced NF-kappaB activation in mouse BV-2 cells expressing luciferase gene at 5 to 100 uM incubated for 24 hrs by steady-glo luciferase assay. It is filed as cell-based. As to conditions: dose 5-100 µM.
Data set [8] relates to BV-2. The data set can be described thus: Inhibition of LPS-induced NF-kappaB activation in mouse BV-2 cells assessed as reduction in NF-kappaB p65 phosphorylation at 100 uM incubated for 1 hr by Western blot analysis. It is filed as cell-based.
Data set [9] relates to BV-2. Description: Antiinflammatory activity in mouse BV-2 cells assessed as reduction in LPS-induced IL-1beta mRNA expression incubated for 6 hrs by qRT-PCR analysis. It counts as functional, cell-based. The following applies: dose 20-100 µM. In general terms: Real-time PCR tracks product formation cycle by cycle.
The subject of data set [10] is BV-2. Description: Cytotoxicity against mouse BV-2 cells assessed as reduction in cell viability upto 200 uM incubated for 24 hrs by crystal violet dye based assay. As to conditions: bv-2, 24 h.
Data set [11] concerns BV-2. Description: Inhibition of LPS-induced NF-kappaB activation in mouse BV-2 cells assessed as reduction in IRAK1 phosphorylation at 100 uM incubated for 1 hr by Western blot analysis. It counts as cell-based.
In data set [12] the test system is BV-2. Description: Antiinflammatory activity in mouse BV-2 cells assessed as reduction in LPS-induced iNOS mRNA expression at 100 uM incubated for 6 hrs by qRT-PCR analysis. It is filed as functional, cell-based.
For data set [13], the system named is BV-2. Description: Antiinflammatory activity in mouse BV-2 cells assessed as reduction in LPS-induced IL-1beta mRNA expression at 100 uM incubated for 6 hrs by qRT-PCR analysis. It is filed as functional, cell-based.
Data set [14] has as its system BV-2. The data set can be described thus: Cytotoxicity against mouse BV-2 cells assessed as reduction in cell viability incubated for 24 hrs by crystal violet dye based assay. As to conditions: BV-2, 24 h.
Data set [15] has as its system BV-2. The data set can be described thus: Cytotoxicity against mouse BV-2 cells assessed as reduction in cell viability incubated for 24 hrs in presence of DHA by crystal violet dye based assay. As to conditions: bv-2, 24 h.
Data set [16] has as its system BV-2. Description: Antiinflammatory activity in mouse BV-2 cells assessed as reduction in LPS-induced nitric oxide production incubated for 24 hrs in presence of DHA by 2, 3-diaminonaphthalene based assay. It is filed as functional, cell-based.
The mark [17] stands for this setting: Mus musculus, BV-2, 24 h, read-out: IC50.

Calls of active or inactive are those of the source. The rule behind the calls is not given here.

A word on the IC50: it is the point on the concentration scale where inhibition reaches its midpoint. `C=C(C)[C@@H]1CCC(C)=C[C@H]1c1c(O)cc(CCCCC)cc1OCCCO[C@H]1O[C@@H]2O[C@]3(C)CC[C@H]4[C@H](C)CC[C@@H]([C@H]1C)[C@@]24OO3`: the inhibition entry in [1], in data set [5] and in data set [6] was “inactive” throughout. In addition, the inhibition result in data set [2], in [4] and in data set [9] was “Dose-Dependent Effect” throughout. Also, the concentration for half-maximal inhibition (IC50) in data set [2] (setting [17]) was determined as 11.7 µM. For the same compound, the inhibition result in data set [3], in data set [7], in data set [8] and in data set [11] was “Active” in each case. The Activity result in data set [10] was “Non-Toxic”.
For `C=C(C)[C@@H]1CCC(C)=C[C@H]1c1c(O)cc(CCCCC)cc1OCCO[C@H]1O[C@@H]2O[C@]3(C)CC[C@H]4[C@H](C)CC[C@@H]([C@H]1C)[C@@]24OO3`, the inhibition entry in data set [2] was “Dose-Dependent Effect”. The IC50 in data set [2] (setting [17]) came out at 55 µM. Also, the inhibition entry in [12] and in data set [13] was “inactive” throughout. For the same compound, in data set [10], the Activity entry was “Non-Toxic”.
In the case of `C=C(C)[C@@H]1CCC(C)=C[C@H]1c1c(O)cc(CCCCC)cc1OCCCCO[C@H]1O[C@@H]2O[C@]3(C)CC[C@H]4[C@H](C)CC[C@@H]([C@H]1C)[C@@]24OO3`, in [2] (bv-2), the IC50 result is recorded as “Not Active”. For the same compound, the inhibition entry in data set [12] and in data set [13] was “inactive” in each case. Besides, the Activity entry in [10] is on record as “Non-Toxic”.
On to `C[C@H]1[C@@H](O)O[C@@H]2O[C@@]3(C)CC[C@H]4[C@H](C)CC[C@@H]1[C@@]24OO3` [ARTENIMOL], for which the IC50 in data set [2] (setting [17]) came out at 7.4 µM; in data set [14] it was 120 µM.
On to `C=C(C)[C@@H]1CCC(C)=C[C@H]1c1c(O)cc(CCCCC)cc1O` [CANNABIDIOL], for which the IC50 in data set [2] (setting [17]) stood at 10.3 µM; in [14], 8 µM. The Activity result in data set [15] was “Toxic”. In addition, in data set [16], the inhibition entry is “Active”.
